Results as given in the NIST ThermoML archive (doi:10.1021/acs.jced.7b00213).

Assay: xn = mol fraction of the nth substance listed
Settings: Gas, Buoyancy - hydrostatic balance with magnetic suspension - two sinkers, x1 = 0.05362

[HH] [hydrogen] + O=C=O
Settings | mass density [kg/m3]
273.15 K, 513.52 kPa | 9.74868
273.15 K, 1039.6 kPa | 20.4494
273.15 K, 1524.6 kPa | 31.0881
273.15 K, 2022.4 kPa | 42.9575
273.15 K, 2536.9 kPa | 56.521
273.15 K, 3036 kPa | 71.3532
293.15 K, 503.16 kPa | 8.83486
293.15 K, 1014.6 kPa | 18.2895
293.15 K, 1992 kPa | 37.9543
293.15 K, 3016.7 kPa | 61.5091
293.15 K, 4051.1 kPa | 89.7154
293.15 K, 4984.9 kPa | 121.352
323.15 K, 549.21 kPa | 8.70026
323.15 K, 1038.1 kPa | 16.7369
323.15 K, 2031.1 kPa | 34.0104
323.15 K, 3009.8 kPa | 52.4905
323.15 K, 4029.4 kPa | 73.5962
323.15 K, 5030.4 kPa | 96.6051
323.15 K, 5997.4 kPa | 121.561
